Test results reported in patent US20190055563A1, “POLYMERASE Q AS A TARGET IN HR-DEFICIENT CANCERS” (DANA-FARBER CANCER INSTITUTE, INC., priority 2015, published 2019).

How the values were obtained:
[1] = test system: A2780-shFANCD2 cells; experiment: Clonogenic survival of HR-deficient cells with POLQ depletion; format: cell-based, human; conditions: A2780-shFANCD2 with shRNA targeting POLQ
Experimental: (§1) For assessing cellular cytotoxicity, cells were seeded into 96-well plates at a density of 1000 cells/well. Cytotoxic drugs were serially diluted in media and added to the wells. At 72 hours, CellTiter-Glo reagent (Promega) was added to the wells and the plates were scanned using a luminescence microplate reader. Survival at each drug concentration was plotted as a percentage of the survival in drug-free media. Each data point on the graph represents the average of three measurements, and the error bars represent the standard deviation. For clonogenic survival, 1000 cells/well were seeded into six-well plates and treated with cytotoxic drugs the next day. For MMC and PARPi, cells were treated continuously with indicated drug concentrations. For CDDP, cells were treated for 24 hours and cultured for 14 days in drug-free media. Colony formation was scored 14 days after treatment using 0.5% (w/v) crystal violet in methanol. Survival curves were expressed as a percentage ±s.e.m. over three independent experiments of colonies formed relative to the DMSO-treated control.

[2] = test system: 293T cells; experiment: 3-day survival assay with POLQ siRNA; format: cell-based, human
Experimental: as §1

[3] = biological target: recombinant human GST-RAD51 (UniProt Q06609)
[4] = test system: A2780 cells; experiment: 3-day survival assay with POLQ inhibition; format: cell-based, human; conditions: 3 days of continuous exposure to ATM inhibitor
Experimental: as §1

[5] = biological target: T1, Flag-tagged POLQ-1633-Cter (human, UniProt O75417 1633-2590); experiment: anti-Flag co-immunoprecipitation from HeLa cells, immunoblot
T1 construct: range 1633-Cter; Stably expressed in HeLa cells; not shown: Flag tag
T1 sequence (looked up): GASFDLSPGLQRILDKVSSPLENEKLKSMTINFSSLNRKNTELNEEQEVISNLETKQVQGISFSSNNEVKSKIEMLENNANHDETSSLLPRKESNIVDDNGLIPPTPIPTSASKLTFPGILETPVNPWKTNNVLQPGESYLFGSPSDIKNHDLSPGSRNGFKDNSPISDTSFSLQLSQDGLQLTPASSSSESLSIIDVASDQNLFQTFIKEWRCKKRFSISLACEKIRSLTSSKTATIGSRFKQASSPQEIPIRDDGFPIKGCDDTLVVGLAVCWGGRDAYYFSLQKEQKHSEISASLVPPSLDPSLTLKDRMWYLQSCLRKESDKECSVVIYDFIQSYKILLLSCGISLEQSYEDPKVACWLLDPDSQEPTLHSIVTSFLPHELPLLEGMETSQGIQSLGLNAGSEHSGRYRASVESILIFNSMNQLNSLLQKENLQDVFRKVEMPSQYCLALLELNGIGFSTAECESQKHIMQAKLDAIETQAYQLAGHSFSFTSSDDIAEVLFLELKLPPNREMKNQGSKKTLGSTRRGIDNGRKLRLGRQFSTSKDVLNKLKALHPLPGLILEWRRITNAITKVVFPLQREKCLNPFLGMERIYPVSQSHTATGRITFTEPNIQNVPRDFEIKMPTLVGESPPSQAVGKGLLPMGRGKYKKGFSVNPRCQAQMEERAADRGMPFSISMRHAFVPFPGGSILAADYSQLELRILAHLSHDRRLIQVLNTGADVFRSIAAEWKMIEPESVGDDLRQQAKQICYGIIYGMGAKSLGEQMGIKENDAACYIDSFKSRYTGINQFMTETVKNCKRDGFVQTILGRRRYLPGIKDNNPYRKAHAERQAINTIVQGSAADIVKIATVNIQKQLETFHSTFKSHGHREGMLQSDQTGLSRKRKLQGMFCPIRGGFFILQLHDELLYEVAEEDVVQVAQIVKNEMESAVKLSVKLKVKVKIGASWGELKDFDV

N.N.[Cl][Pt][Cl] [CDDP, cis-diamminedichloroplatinum(II)]
survival of HR-deficient cells exposed to drug, effect of POLQ depletion [1]: reduced the survival

CO[C@@]12[C@H](COC(N)=O)C3=C(C(=O)C(C)=C(N)C3=O)N1C[C@@H]1N[C@@H]12 [MMC, Mitomycin C]
cellular sensitivity to drug after depletion of POLQ [2]: hypersensitivity | survival of HR-deficient cells exposed to drug, effect of POLQ depletion [1]: reduced the survival

purified recombinant POLQ fragment ΔPol2 (amino acids 1 to 1000), wild-type
RAD51-ssDNA nucleofilament assembly [3]: RAD51-ssDNA assembly was reduced by wild-type ΔPol2

O=c1cc(-c2cccc3c2Sc2ccccc2S3)oc(N2CCOCC2)c1 [Ku55933]
survival of A2780 cells, effect of POLQ inhibition [4]: reduces the survival

B1: endogenous RAD51 (other, UniProt Q06609 2-339, looked up)
chain: AMQMQLEANADTSVEEESFGPQPISRLEQCGINANDVKKLEEAGFHTVEAVAYAPKKELINIKGISEAKADKILAEAAKLVPMGFTTATEFHQRRSEIIQITTGSKELDKLLQGGIETGSITEMFGEFRTGKTQICHTLAVTCQLPIDRGGGEGKAMYIDTEGTFRPERLLAVAERYGLSGSDVLDNVAYARAFNTDHQTQLLYQASAMMVESRYALLIVDSATALYRTDYSGRGELSARQMHLARFLRMLLRLADEFGVAVVITNQVVAQVDGAAMFAADPKKPIGGNIIAHASTTRLYLRKGRGETRICKIYDSPCLPEAEAMFAINADGVGDAKD
notes: Endogenous protein in cell lysates
binding result [5]: no binding
